For test [1], the target named is T1, M2 muscarinic receptor (Homo sapiens, UniProt P08172).
T1 construct: membranes
T1 sequence (P08172 1-466): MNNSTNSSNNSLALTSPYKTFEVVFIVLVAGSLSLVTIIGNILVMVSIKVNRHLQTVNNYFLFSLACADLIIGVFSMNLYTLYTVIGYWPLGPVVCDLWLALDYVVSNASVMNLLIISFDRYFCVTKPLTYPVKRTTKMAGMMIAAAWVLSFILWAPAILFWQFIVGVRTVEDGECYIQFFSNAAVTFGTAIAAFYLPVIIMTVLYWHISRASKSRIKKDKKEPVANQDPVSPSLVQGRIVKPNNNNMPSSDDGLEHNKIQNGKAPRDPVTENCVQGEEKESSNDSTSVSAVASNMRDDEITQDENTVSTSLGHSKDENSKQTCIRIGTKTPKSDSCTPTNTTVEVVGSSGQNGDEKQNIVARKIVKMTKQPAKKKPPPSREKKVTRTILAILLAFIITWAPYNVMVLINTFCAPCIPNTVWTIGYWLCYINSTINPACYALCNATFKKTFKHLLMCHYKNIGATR
The experiment in a line: [3H]NMS competition binding, membranes from CHO cells expressing M2. As for the experimental part: (§1) Cells were cultured as described previously by Randakova et al.[33]. […] The medium was supplemented with 5 mM butyrate for the last 24 h of culture to increase receptor expression. Cells were washed with (phosphate-buffered saline (PBS), mechanically harvested by scraper and centrifugated 1000 × g for 5 min. Cell pellets were kept at − 80 °C.
(§2) Membranes were prepared as described previously by Randakova et al.[33]. Cells harvested from twenty 100 mm petri dishes (CHO) or 30 ml of cell suspension (Sf9) were suspended in 20 ml of ice-cold incubation medium (100 mM NaCl, 20 mM Na-HEPES, 10 mM MgCl2, pH 7.4) supplemented with 10 mM EDTA and homogenized on ice by two 30‐s strokes using a Polytron homogenizer (Ultra-Turrax; Janke & Kunkel GmbH & Co. KG, IKA-Labortechnik, Staufen, Germany) with a 30 s pause between strokes. Cell homogenates were centrifuged for 5 min at 1000×g to remove whole cells and cell nuclei. The resulting supernatants were centrifuged for 30 min at 30,000×g. Pellets were suspended in a fresh incubation medium, incubated on ice for 30 min, and centrifuged again. The resulting membrane pellets were kept at − 80 °C until assayed within 10 weeks.
(§3) Non-specific binding was determined in the presence of 10 μM unlabelled atropine. Incubations were terminated by filtration through filtration plates multiscreen 96 well Harvest (Merck Millipore) using a Brandel cell harvester (Brandel, Gaithersburg, MD, USA). Filtration plates were dried in a microwave oven, and then 40 μl of liquid scintillator Rotiscint eco plus (Roth) was added. The filtration plates were counted in the Microbeta scintillation counter (PerkinElmer). […] The inhibition constant KI was calculated according to Eq. (2).
(§4) Inhibition constants KI were calculated according to Eq. (2).2 KI=IC50/1+D/KD where IC50 is calculated according to Eq.

In test [2] the target is T2, M5 muscarinic receptor (Homo sapiens, UniProt P08912).
T2 construct: membranes
T2 sequence (P08912 1-532): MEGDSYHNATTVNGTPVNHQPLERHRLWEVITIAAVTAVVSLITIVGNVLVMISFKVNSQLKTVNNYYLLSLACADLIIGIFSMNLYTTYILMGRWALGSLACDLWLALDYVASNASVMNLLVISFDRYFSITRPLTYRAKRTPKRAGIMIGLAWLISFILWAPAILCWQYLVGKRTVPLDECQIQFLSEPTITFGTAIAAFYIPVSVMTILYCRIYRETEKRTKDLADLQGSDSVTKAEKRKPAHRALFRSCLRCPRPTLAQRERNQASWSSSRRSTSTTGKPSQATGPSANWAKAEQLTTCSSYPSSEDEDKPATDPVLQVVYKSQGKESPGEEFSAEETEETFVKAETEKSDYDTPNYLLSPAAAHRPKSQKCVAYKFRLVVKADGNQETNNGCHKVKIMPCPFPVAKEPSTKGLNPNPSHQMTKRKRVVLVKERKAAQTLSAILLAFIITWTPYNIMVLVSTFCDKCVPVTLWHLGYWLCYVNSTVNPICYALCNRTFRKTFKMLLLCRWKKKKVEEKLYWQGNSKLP
Put plainly: [3H]NMS competition binding, membranes from CHO cells expressing M5. As for the experimental part:
as §1, §2, §3, §4

The target of test [3] is T3, M3 muscarinic receptor (Homo sapiens, UniProt P20309).
T3 construct: membranes
T3 sequence (P20309 whole entry): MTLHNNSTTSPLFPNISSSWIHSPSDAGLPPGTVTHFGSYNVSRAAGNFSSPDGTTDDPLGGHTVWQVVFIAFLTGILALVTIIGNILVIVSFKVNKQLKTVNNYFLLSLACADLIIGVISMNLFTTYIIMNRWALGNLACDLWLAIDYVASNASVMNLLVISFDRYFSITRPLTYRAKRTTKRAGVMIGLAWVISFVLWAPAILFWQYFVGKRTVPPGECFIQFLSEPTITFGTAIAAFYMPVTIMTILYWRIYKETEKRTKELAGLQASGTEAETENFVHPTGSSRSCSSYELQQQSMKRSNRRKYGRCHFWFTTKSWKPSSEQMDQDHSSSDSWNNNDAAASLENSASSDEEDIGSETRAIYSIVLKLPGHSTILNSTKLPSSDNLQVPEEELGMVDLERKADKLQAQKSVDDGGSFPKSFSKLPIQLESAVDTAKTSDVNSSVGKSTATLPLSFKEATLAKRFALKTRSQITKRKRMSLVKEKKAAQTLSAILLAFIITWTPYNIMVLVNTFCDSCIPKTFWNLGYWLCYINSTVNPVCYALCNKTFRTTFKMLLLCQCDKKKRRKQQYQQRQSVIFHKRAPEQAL
The experiment in a line: [3H]NMS competition binding, membranes from CHO cells expressing M3. The conditions noted are these: competition with [3H]NMS, mean ± SD, three experiments, read-out: Binding affinity, negative logarithm of Ki (converted). As for the experimental part: as §1, §2, §3, §4

Test [4] deals with T4, M1 muscarinic receptor (Homo sapiens, UniProt P11229).
T4 construct: membranes
T4 sequence (P11229 1-460): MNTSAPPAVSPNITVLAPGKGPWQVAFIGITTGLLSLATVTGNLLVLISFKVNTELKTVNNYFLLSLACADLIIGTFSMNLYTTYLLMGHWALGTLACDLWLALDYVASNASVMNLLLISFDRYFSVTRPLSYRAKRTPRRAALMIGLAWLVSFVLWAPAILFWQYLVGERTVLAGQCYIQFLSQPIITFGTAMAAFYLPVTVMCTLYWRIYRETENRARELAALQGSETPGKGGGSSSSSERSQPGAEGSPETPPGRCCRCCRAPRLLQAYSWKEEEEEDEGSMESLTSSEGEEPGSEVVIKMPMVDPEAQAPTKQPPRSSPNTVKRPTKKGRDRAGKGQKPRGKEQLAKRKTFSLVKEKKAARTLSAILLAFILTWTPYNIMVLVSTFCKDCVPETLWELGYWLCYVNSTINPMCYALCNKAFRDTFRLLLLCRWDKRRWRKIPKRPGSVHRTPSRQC
The experiment in a line: [3H]NMS competition binding, membranes from CHO cells expressing M1. Conditions: competition with [3H]NMS, mean ± SD, three experiments, read-out: Binding affinity, negative logarithm of Ki (converted). As for the experimental part:
as §1, §2, §3, §4

Test [5] has as its target T5, M4 muscarinic receptor (Homo sapiens, UniProt P08173).
T5 construct: membranes
T5 sequence (P08173 1-479): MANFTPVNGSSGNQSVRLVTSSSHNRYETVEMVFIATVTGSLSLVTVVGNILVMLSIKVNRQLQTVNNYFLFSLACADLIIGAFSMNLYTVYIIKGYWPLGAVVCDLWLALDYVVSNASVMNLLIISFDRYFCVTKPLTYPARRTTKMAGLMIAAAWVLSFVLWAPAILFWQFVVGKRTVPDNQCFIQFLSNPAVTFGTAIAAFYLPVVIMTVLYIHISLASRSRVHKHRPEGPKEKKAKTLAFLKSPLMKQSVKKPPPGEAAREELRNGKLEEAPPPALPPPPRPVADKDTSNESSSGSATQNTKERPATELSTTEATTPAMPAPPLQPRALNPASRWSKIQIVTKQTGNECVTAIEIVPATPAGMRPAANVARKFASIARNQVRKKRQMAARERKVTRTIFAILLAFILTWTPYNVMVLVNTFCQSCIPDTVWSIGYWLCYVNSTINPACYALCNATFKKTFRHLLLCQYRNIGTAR
The experiment in a line: [3H]NMS competition binding, membranes from CHO cells expressing M4. As for the experimental part: as §1, §2, §3, §4

Test [6] has as its target T6, M2 receptor (Homo sapiens, UniProt P08172).
T6 sequence (P08172 1-466): T1 sequence (P08172 1-466)
Put plainly: Agonist-stimulated GTPγ[35S] binding to Sf9 membranes expressing M2 receptor and individual Gαi/o. The arrangement: host or cells: Sf9 insect cells, baculovirus (pFastBac1 / Bac-to-Bac); membranes. The test is classed as biochemical. The conditions noted are these: for Activation of individual Gi/o Gα types: M2 with GαoA, GαoB, Gαi1, Gαi2, Gαi3. As for the experimental part:
Baculoviral stocks for expression of M2 receptor and individual Gα-subunits of Gi/o G-proteins (GαoA, GαoB, Gαi1, Gαi2, Gαi3) in SF9 cells were generated according to Bac-to-Bac® baculovirus expression system—user guide (https://assets.thermofisher.com/TFS-Assets/LSG/manuals/MAN0000414_BactoBacExpressionSystem_UG.pdf). […] After 96 h at 27 °C, baculoviral viral particles released into the medium were harvested. After centrifugation at 500×g for 10 min to remove detached cells and cell debris, baculoviral stock P0 was ready for amplification. Suspension of Sf9 cells at density 2 × 10^6 cells per ml was infected by baculoviral stock P0 in ratio 1:1000 and after 72 h of growth (in a shaking incubator at 135 rpm and 27 °C) the amplified baculoviral stock P1 was harvested. The cell suspension was centrifugated at 500×g for 10 min to remove cells and cell debris and the supernatant containing a high level of baculoviral particles P1 was collected. FBS to the concentration of 0.5% was added and the stock was stored at 4 °C, protected from light for up to 6 months. For the quantification of baculoviral particles, a plaque assay was used.
Cells were grown in suspension culture in 250 ml Erlenmeyer flasks in Sf-900™ III serum-free medium in an aerated shaking incubator at 27 °C and 135 rpm. Cells were maintained at the density of 1–4 × 10^6 cells per ml. Sf9 cells at the density 2 × 10^6 were co-infected with baculoviral stock for the M2 receptor and a particular Gi/o Gα in the ratio (1:10). […] Infected cells were harvested by centrifugation 1000×g for 10 min. Cell pellets were kept at − 80 °C.
as §2
Agonist stimulated GTPγ[^35S]binding to membranes from Sf9 cells expressing the M2 receptors in a combination with α-subunit of given Gi/o type (GαoA, GαoB, Gαi1, Gαi2, Gαi3) was measured in 96-well plates in a final volume of 200 µl of incubation medium described above containing 500 pM of GTPγ[^35S] […] Nonspecific binding was determined in the presence of 1 µM nonlabelled GTPγS. Incubations were terminated and processed as described above. Parameters of functional response were calculated according to Eq. (3) after subtraction of non-specific binding.
The basal value of GTPγ[^35S] binding was determined in the absence of the agonist. After subtraction of non-specific binding determined in the presence of 10 μM nonlabelled GTPγS, GTPγ[^35S]binding was divided by the basal value and expressed as folds over basal. […] Then Eq. (3) was fitted to the data using GraphPad. Obtained EMAX and EC50 values were used to calculate RAi values using Eq. (7). To determine τ and KA of the functional responses system EMAX was determined as described earlier. Basal values were subtracted and functional responses were expressed as fractions of system EMAX. […] Obtained τ and KA values were used to calculate the bias factor according to Eq. (8), see below, for each experiment.
Equation (4) was fitted to data by the two-step procedure described earlier[61]
In general terms: GTPγS resists hydrolysis and so accumulates on activated G proteins.

Where two headings read alike, the source gives them in different places.

Take `c1csc(CN2CCOCC2)c1` [JB-12-1]: the Ki (as a rule, the dissociation constant of the complex between target and ligand, obtained from inhibition or displacement) in test [1] (M2, competition with [3H]NMS, mean ± SD, three experiments, read-out: Binding affinity, negative logarithm of Ki (converted)) was 302 µM; in test [2] (M5, competition with [3H]NMS, mean ± SD, three experiments, read-out: Binding affinity, negative logarithm of Ki (converted)), more than 1000 µM; in test [3] it was more than 1000 µM; in test [4], more than 1000 µM; in test [5] (M4, competition with [3H]NMS, mean ± SD, three experiments, read-out: Binding affinity, negative logarithm of Ki (converted)), more than 1000 µM.
Consider `COC(=O)C1=CCC[N+](C)(Cc2cccs2)C1` (centres unmarked) [JB-13-2], for which the Ki in test [1] is 9.55 µM; in test [2], 97.7 µM; in test [3], 126 µM; in test [4], 42.7 µM; in test [5], 22.9 µM.
`C[N+](C)(C)CC#CCOC(=O)Nc1cccc(Cl)c1.[Cl-]` [Mc-Neil A343, reference compound]: the “Bias according to RAi, Gαi2 vs GαoB” value in test [6] (M2, relative to carbachol) is 2.3 ×. The “Activation of individual Gi/o Gα types” value in test [6] is “activated all Gi/o Gα”.
Regarding `Clc1ccc2c(c1)N=C(N1CCNCC1)c1ccccc1N2` [NDMC, reference compound], the “Activation of individual Gi/o Gα types” value in test [6] is “activated all Gi/o Gα”.
With `C[N+](C)(C)CC#CCOC1=NOCC1` [iperoxo, reference compound], the “Bias according to RAi, Gαi3 vs GαoA” value in test [6] (M2, relative to carbachol) was 2.5 times. The “Activation of individual Gi/o Gα types” value in test [6] is “activated all Gi/o Gα”.
`O=C1CCCN1CC#CCN1CCCC1` [oxotremorine, reference compound]: the “Bias according to RAi, Gαi2 vs Gαi3” value in test [6] (M2, relative to carbachol) is listed as 2 ×. Further, in test [6], the “Activation of individual Gi/o Gα types” value is reported as “activated all Gi/o Gα”.

(Values after article PMC11053168, “Agonist-selective activation of individual G-proteins by muscarinic receptors” (Scientific Reports, 2024).)
